Results published in patent publication US20060269482A1 (priority 2005, published 2006).

How the values were obtained:
[1] = system: Rb phosphorylation in cells; details: literature report; cited from earlier work
[2] = system: Rb phosphorylation in tumor xenografts; details: literature report; cited from earlier work
[3] = system: Rb phosphorylation in rat PBMCs; assay: Rb phosphorylation in rat PBMCs following ex vivo PMA activation; format: cell-based; details: 300 ng/ml for 24 hours, Western blot
Procedure: PBMCs are not cycling cells and need to be stimulated with the mitogen PMA to enter the cell cycle.
Blood from three rats at the specified times was pooled (˜10 mls total) and PBMCs were separated using the Lymphocyte Separation Medium (LSM) and protocol supplied by ICN Biomedicals Inc. (Costa Mesa, Calif.). Briefly whole blood was diluted 1:1 with cold HBSS (Hanks Balanced Salt Solution), layered onto the LSM and centrifuged. The layer of mononuclear cells above the LSM was collected, transferred to a new tube and washed once with cold HBSS. Cells were resuspended in RPMI 1640, 10% HI-FBS, 2 mM L-glutamine and 0.01 mg/ml Gentamicin Reagent Solution (GIBCO/Invitrogen). Cells were seeded into T-75 cm^2 flasks at ≦1×10^7 cells in 20 mls medium and stimulated with 300 ng/ml of phorbol 12-myristate 13-acetate (PMA) for 24 hours. […]
(§1) PBMCs were collected by transferring the cells, including attached cells and those in suspension, into 50 ml tubes. […] Samples were sonicated on ice for 30 seconds, clarified by centrifugation at 16,000×g for 10 minutes at 4° C. and protein concentrations determined using Non-Interfering Protein Assay Kit (Geno Technology Incorporated, Maplewood, Mo.). […] For Western blotting, total Rb was detected using antibody from Pharmingen (BD Bioscience, San Diego, Calif.) at a dilution of 1:2000. […]

[4] = system: Rb phosphorylation in human PBMCs; assay: Rb phosphorylation in human PBMCs stimulated ex vivo with PMA; format: cell-based
Procedure: Approximately 10 mls of blood was collected from five healthy human volunteers into sodium heparin treated Vacutainer blood collection tubes by Employee Health Services. PBMCs were separated using the Lymphocyte Separation Medium (LSM) and protocol supplied by ICN Biomedicals Inc. (Costa Mesa, Calif.). Briefly whole blood was diluted 1:1 with cold HBSS (Hanks Balanced Salt Solution), layered onto the LSM and centrifuged. The band of mononuclear cells above the LSM was collected, transferred to a new tube and washed once with cold HBSS. Cells were resuspended in RPMI 1640, 10% HI-FBS, 2 mM L-glutamine and 0.01 mg/ml Gentamicin Reagent Solution (GIBCO/Invitrogen). […]
as §1, with “1:2000. Lysates were analysed by Western blotting for Rb phosphorylation using polyclonal antibodies against phosphorylated serine 795, serine 780, threonine 821 and serine 807/811 in human Rb (FIG. 8).” for “1:2000.”

phosphorylated Rb = details: phase 1, in combination with docetaxel, cited from earlier work

SMILES: CC(C)(C)c1cnc(CSc2cnc(NC(=O)C3CCNCC3)s2)o1 [BMS-387032]
- Rb phosphorylation in cells [1]: Inhibition of Rb phosphorylation

SMILES: CC[C@H](CO)Nc1nc(NCc2ccccc2)c2ncn(C(C)C)c2n1 [CYC 202, r-Roscovitine]
- Rb phosphorylation in cells [1]: Inhibition of Rb phosphorylation

SMILES: CC(=O)c1c(C)c2cnc(Nc3ccc(N4CCNCC4)cn3)nc2n(C2CCCC2)c1=O [PD 0332991]
- Rb phosphorylation in tumor xenografts [2]: Inhibition of Rb phosphorylation
- Rb phosphorylation in cells [1]: Inhibition of Rb phosphorylation

SMILES: CCCCCCCCCCCCCC(=O)O[C@@H]1[C@@H](C)[C@@]2(O)[C@@H](C=C(CO)C[C@]3(O)C(=O)C(C)=C[C@@H]23)[C@@H]2C(C)(C)[C@]12OC(C)=O [PMA, phorbol 12-myristate 13-acetate]
- Phosphorylated Rb in rat PBMCs after mitogen stimulation [3]: sufficient for detection of phosphorylated Rb
- Phosphorylation at serine 795 and serine 780 in human PBMCs ([4]; 300 ng/ml, 24, 48 and 72 hours post stimulation): not significant until 48-72 hours
- Phosphorylation at serine 807/811 and threonine 821 sites in human PBMCs ([4]; 300 ng/ml, 24 hours post mitogen addition, five donors): Significant phosphorylation

SMILES: CN1CC[C@H](c2c(O)cc(O)c3c(=O)cc(-c4ccccc4Cl)oc23)[C@H](O)C1 [flavopiridol]
- Rb phosphorylation in cells [1]: Inhibition of Rb phosphorylation
- pRb in paired tumors (phosphorylated Rb; 6 paired tumors): no significant changes
- pRb in buccal mucosa biopsies post treatment (phosphorylated Rb; patients with metastatic tumors): somewhat decreased
